Here are results for 20 compounds from PubChem BioAssay AID256 (DTP/NCI, 2004).

Values joined by “and” are separate entries in the source; they are usually repeats but may differ in a detail not shown here. Equal entries are not always repeated. Toxic doses and inconclusive results are not listed.

In the assay the test system is CD2F1 mice, L1210 leukemia ip, survival T/C. Description: NCI In Vivo Anticancer Drug Screen. Data for tumor model L1210 Leukemia (intraperitoneal) in CD2F1 (CDF1) mice. The note with it: endpoint: mean survival time, higher = longer survival. The procedure, abridged:
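Transplantable tumor in mice; compound-treated vs vehicle-treated groups. Read-out = treated/control ratio of the measured endpoint.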

Setting [1] is: dose: 100.0 mg/kg/injection, schedule: Q04DX003 (ip), vehicle: saline with Tween-80.
The mark [2] stands for this setting: dose: 200.0 mg/kg/injection, schedule: Q04DX003 (ip), vehicle: saline with Tween-80.
[3] abbreviates: dose: 400.0 mg/kg/injection, schedule: Q04DX003 (ip), vehicle: saline with Tween-80.
[4] abbreviates: dose: 100.0 mg/kg/injection, schedule: Q01DX009 (ip), vehicle: saline with Tween-80.
Where [5] appears, read: dose: 200.0 mg/kg/injection, schedule: Q01DX009 (ip), vehicle: saline with Tween-80.
Setting [6] is: dose: 100.0 mg/kg/injection, schedule: Q01DX001 (ip), vehicle: saline.
Setting [7] is: dose: 200.0 mg/kg/injection, schedule: Q01DX001 (ip), vehicle: saline.
Where [8] appears, read: dose: 400.0 mg/kg/injection, schedule: Q01DX001 (ip), vehicle: saline.
[9] abbreviates: dose: 400.0 mg/kg/injection, schedule: Q01DX009 (ip), vehicle: saline with Tween-80.
The mark [10] stands for this setting: dose: 6.25 mg/kg/injection, schedule: Q01DX009 (ip), vehicle: saline.
The mark [11] stands for this setting: dose: 12.5 mg/kg/injection, schedule: Q01DX009 (ip), vehicle: saline.

Regarding `Nc1nc(N)c(N=Nc2ccc(SCC(=O)O)cc2)c(N)n1`, the T/C reads like this: under setting [1], 102 % of control; under setting [2], 104 % of control; under setting [3], 95 % of control.
In the case of `C1=Cc2ccccc2/C1=C/c1ccc(/C=C2\C=Cc3ccccc32)cc1`, the T/C is, setting by setting: under setting [4], 98 % of control; under setting [5], 89 % of control; (dose: 700.0 mg/kg/injection, schedule: Q01DX009 (ip), vehicle: saline with Tween-80) 89 % of control.
Turning to `O=CNCCc1ccc2c(c1)[nH]c1ccccc12`, the T/C is 95 % of control under setting [6], 98 % of control under setting [7] and 98 % of control under setting [8].
For `CCOC(=O)C(N)CSSCC(N)C(=O)OCC` (configuration not stated), the T/C by setting is: (dose: 100.0 mg/kg/injection, schedule: Q04DX003 (ip), vehicle: saline) 100 % of control; (dose: 200.0 mg/kg/injection, schedule: Q04DX003 (ip), vehicle: saline) 102 % of control; (dose: 400.0 mg/kg/injection, schedule: Q04DX003 (ip), vehicle: saline) 97 % of control.
Turning to `N#CCCN(CCCN1CCOCC1)C(=S)Nc1ccc(Cl)cc1`, the T/C is 104 % of control under setting [4], 104 % of control under setting [5] and 93 % of control under setting [9].
For `OCC1OC(n2cnc3c(/C=C(/O)c4ccccc4)ncnc32)C(O)C1O` (configuration not stated), the T/C (dose: 12.5 mg/kg/injection, schedule: Q01DX005 (ip), vehicle: distilled water + Tween-80) was 102 % of control; the T/C (dose: 25.0 mg/kg/injection, schedule: Q01DX005 (ip), vehicle: distilled water + Tween-80) was 91 % of control; the T/C (dose: 50.0 mg/kg/injection, schedule: Q01DX005 (ip), vehicle: distilled water + Tween-80) is 87 % of control; the T/C (dose: 100.0 mg/kg/injection, schedule: Q01DX005 (ip), vehicle: distilled water + Tween-80) was 90 % of control; the T/C (dose: 200.0 mg/kg/injection, schedule: Q01DX005 (ip), vehicle: distilled water + Tween-80) is 98 % of control.
As for `CCOC(=O)C(C(=O)c1ccccc1)C(c1ccccc1)C(C(=O)OCC)C(=O)c1ccccc1` (configuration not stated), the T/C runs as follows: under setting [4], 94 % of control; under setting [1], 93 % of control; under setting [5], 94 % of control; under setting [2], 90 % of control; under setting [9], 100 % of control; under setting [3], 98 % of control.
For `COc1ccccc1N=Nc1c(O)n(-c2ccccc2OC)c(=S)n(-c2ccc(I)cc2)c1=O`, the T/C was 96 % of control (dose: 100.0 mg/kg/injection, schedule: Q01DX001 (ip), vehicle: saline with Tween-80); 93 % of control (dose: 200.0 mg/kg/injection, schedule: Q01DX001 (ip), vehicle: saline with Tween-80); 95 % of control (dose: 400.0 mg/kg/injection, schedule: Q01DX001 (ip), vehicle: saline with Tween-80).
As to `O=[N+]([O-])c1ccc2nc(Cl)sc2c1`, the T/C reads like this: (dose: 25.0 mg/kg/injection, schedule: Q01DX009 (ip), vehicle: saline with Tween-80) 102 % of control; (dose: 50.0 mg/kg/injection, schedule: Q01DX009 (ip), vehicle: saline with Tween-80) 103 % of control; under setting [4], 100 % of control; under setting [1], 86 % of control.
For the compound `N=C(c1ccccc1)c1ccccc1`, the T/C under setting [4] is 100 % of control, the T/C under setting [5] was 102 % of control and the T/C under setting [9] is 102 % of control.
Regarding `CC1CN(CCC#N)C(=O)S1(=O)=O` (configuration not stated), the T/C (dose: 75.0 mg/kg/injection, schedule: Q01DX001 (ip), vehicle: other) is 108 % of control.
For `O=C(/C=C/c1ccccc1)N/N=C/c1ccccc1Cl`, the T/C was 105 % of control (dose: 50.0 mg/kg/injection, schedule: Q01DX009 (ip), vehicle: Klucel (hydroxypropylcellulose) (HPC)); 105 % of control (dose: 100.0 mg/kg/injection, schedule: Q01DX009 (ip), vehicle: Klucel (hydroxypropylcellulose) (HPC)); 105 % of control (dose: 200.0 mg/kg/injection, schedule: Q01DX009 (ip), vehicle: Klucel (hydroxypropylcellulose) (HPC)).
`O=C(NC(CSSCC(NC(=O)OCc1ccccc1)C(=O)O)C(=O)O)OCc1ccccc1` (configuration not stated): the T/C by setting is: (dose: 100.0 mg/kg/injection, schedule: Q01DX009 (ip), vehicle: other) 95 % of control; (dose: 200.0 mg/kg/injection, schedule: Q01DX009 (ip), vehicle: other) 95 % of control; (dose: 400.0 mg/kg/injection, schedule: Q01DX009 (ip), vehicle: other) 98 % of control.
Consider `O=C1CCCC2c3ccccc3NC12` (configuration not stated), for which the T/C runs as follows: under setting [6], 98 % of control; under setting [7], 102 % of control; under setting [8], 101 % of control.
For the compound `Nc1ccn([C@@H](C=O)O[C@@H](C=O)CO)c(=O)n1`, the T/C by setting is: under setting [10], 105 % of control; under setting [11], 114 % of control and 108 % of control; (dose: 25.0 mg/kg/injection, schedule: Q01DX009 (ip), vehicle: saline) 115 % of control and 117 % of control; (dose: 50.0 mg/kg/injection, schedule: Q01DX009 (ip), vehicle: saline) 121 % of control; (dose: 70.0 mg/kg/injection, schedule: Q01DX001 (ip), vehicle: saline) 114 % of control; (dose: 100.0 mg/kg/injection, schedule: Q01DX009 (ip), vehicle: saline) 155 % of control and 162 % of control. Further, the T/C was 124 % of control (dose: 140.0 mg/kg/injection, schedule: Q01DX001 (ip), vehicle: saline) and 211 % of control (dose: 200.0 mg/kg/injection, schedule: Q01DX009 (ip), vehicle: saline).
`CCC[CH2][Sn]1([CH2]CCC)[O]C(=O)c2c(Cl)c(Cl)c(Cl)c(Cl)c2C(=O)[O]1`: the T/C by setting is: (dose: 5.0 mg/kg/injection, schedule: Q01DX001 (ip), vehicle: saline) 101 % of control; (dose: 10.0 mg/kg/injection, schedule: Q01DX001 (ip), vehicle: saline) 101 % of control; (dose: 20.0 mg/kg/injection, schedule: Q01DX001 (ip), vehicle: saline) 109 % of control.
For `COc1cc(Br)c(CCNC(=O)Cc2cc(OC)c(OC)cc2Br)cc1OC`, the T/C was 91 % of control under setting [1] and 86 % of control under setting [2].
For `Nc1cc(N)c2cccnc2c1O`, the T/C is, setting by setting: under setting [10], 101 % of control; under setting [11], 114 % of control.
On to `CCC(C)N(CCCOC(=O)c1ccc(N)cc1)C(C)CC` (configuration not stated), for which the T/C is 103 % of control (dose: 12.5 mg/kg/injection, schedule: Q04DX003 (ip), vehicle: saline); 107 % of control (dose: 25.0 mg/kg/injection, schedule: Q04DX003 (ip), vehicle: saline); 103 % of control (dose: 50.0 mg/kg/injection, schedule: Q04DX003 (ip), vehicle: saline).
Regarding `OC12CC3C4CC(O1)C1C4CC3C12` (configuration not stated), the T/C reads like this: under setting [6], 100 % of control; under setting [7], 96 % of control; under setting [8], 96 % of control.
